Source: BindingDB's records for patent US20250059204 (Aurigene Oncology, 2025)

Target: Histone acetyltransferase KAT6A (UniProt Q92794)
Assay: KAT6A Biochemical Assay
Description: TR-FRET is homogeneous proximity assay where Europium-labelled anti-acetyl lysine antibody binds to the acetylated substrate labelled with biotin which in turn binds to streptavidin labelled APC fluorescence acceptor. Europium can transfer energy to APC in the complex and the interaction of two dye-labelled binding partners is detected by the energy transfer between a donor and an acceptor dye, and the subsequent light emission by the acceptor dye. KAT6A transfer an acetyl group from acetyl CoA to lysine amino acids of histones/target proteins. Typically, 5 μL of human-KAT6A (MYST domain 507-778 aa) in assay buffer (100 mM Tris HCl (pH 7.8), 15 mM NaCl, 1 mM EDTA, 0.01% Tween-20, 0.02% BSA, 1 mM DTT) is added to 384-well plate containing 5 μL of selected test compound in final 1% DMSO, serially diluted in 1:3 in an 8-10-point titration. The selected compound of the present invention and enzyme are incubated for 30 min at room temperature. Next, 5 μL of substrate mix containing histone H4 peptide and acetyl-CoA in assay buffer is added to the plate. The final concentrations of H4 peptide and acetyl-CoA are 200 nM and 600 nM respectively. […] The plate is further incubated for 45 min at room temperature and is read in TR-FRET mode (Ex:340 nm; Em: 615 nm and 665 nm) on a plate reader.

Chain of Histone acetyltransferase KAT6A (Q92794 whole entry): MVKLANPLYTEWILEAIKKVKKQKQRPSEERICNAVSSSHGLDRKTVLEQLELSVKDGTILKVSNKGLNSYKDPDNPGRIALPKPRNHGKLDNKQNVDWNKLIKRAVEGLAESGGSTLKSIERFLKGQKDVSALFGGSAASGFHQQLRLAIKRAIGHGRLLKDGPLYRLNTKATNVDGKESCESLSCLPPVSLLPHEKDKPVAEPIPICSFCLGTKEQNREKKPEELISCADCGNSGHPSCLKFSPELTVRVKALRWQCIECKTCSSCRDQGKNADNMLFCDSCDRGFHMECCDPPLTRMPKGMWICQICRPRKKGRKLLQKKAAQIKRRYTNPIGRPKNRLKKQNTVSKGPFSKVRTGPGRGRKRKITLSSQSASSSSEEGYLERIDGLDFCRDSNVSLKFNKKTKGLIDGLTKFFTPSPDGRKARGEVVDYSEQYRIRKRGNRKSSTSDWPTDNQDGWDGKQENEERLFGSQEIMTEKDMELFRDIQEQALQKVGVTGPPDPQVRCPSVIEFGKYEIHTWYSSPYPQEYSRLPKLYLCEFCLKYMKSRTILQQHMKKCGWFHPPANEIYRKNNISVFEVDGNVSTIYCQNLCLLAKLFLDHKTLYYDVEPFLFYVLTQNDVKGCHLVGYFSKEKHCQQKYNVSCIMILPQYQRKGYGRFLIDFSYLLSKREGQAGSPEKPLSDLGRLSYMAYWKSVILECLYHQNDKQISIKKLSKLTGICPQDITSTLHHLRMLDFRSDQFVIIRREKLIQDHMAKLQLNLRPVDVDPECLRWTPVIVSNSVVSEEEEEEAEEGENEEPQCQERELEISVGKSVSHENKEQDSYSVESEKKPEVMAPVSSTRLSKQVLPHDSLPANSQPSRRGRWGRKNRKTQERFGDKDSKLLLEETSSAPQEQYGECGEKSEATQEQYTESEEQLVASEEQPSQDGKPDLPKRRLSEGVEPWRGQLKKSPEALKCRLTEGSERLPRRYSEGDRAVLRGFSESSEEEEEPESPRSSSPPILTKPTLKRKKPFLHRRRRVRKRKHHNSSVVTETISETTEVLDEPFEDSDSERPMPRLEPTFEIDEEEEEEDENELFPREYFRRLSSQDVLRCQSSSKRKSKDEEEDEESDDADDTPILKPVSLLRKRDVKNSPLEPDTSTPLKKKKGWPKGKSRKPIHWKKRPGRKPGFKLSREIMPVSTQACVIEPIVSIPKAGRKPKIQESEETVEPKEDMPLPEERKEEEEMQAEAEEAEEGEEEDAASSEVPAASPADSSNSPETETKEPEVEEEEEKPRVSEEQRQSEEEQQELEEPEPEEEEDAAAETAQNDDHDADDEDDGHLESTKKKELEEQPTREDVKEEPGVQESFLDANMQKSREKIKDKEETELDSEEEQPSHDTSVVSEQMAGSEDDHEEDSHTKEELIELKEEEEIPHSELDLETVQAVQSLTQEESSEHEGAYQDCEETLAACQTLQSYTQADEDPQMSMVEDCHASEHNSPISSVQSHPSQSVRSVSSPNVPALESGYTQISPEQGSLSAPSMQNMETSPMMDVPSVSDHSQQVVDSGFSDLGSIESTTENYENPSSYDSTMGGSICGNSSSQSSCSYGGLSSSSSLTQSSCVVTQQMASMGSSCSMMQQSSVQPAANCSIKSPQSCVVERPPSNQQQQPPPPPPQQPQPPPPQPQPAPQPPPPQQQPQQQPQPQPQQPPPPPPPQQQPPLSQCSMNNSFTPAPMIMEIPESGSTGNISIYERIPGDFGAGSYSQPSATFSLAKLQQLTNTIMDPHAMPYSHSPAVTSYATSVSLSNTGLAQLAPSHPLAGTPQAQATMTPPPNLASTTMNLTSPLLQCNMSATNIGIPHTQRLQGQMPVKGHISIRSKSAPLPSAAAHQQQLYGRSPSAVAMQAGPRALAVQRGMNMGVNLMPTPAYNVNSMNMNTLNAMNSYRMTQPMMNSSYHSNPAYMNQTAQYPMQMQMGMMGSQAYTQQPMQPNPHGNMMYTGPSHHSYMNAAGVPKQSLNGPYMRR

IC50	Structure (SMILES)
156 nM	COc1cccc(OC)c1S(=O)(=O)Nc1noc2cc(-c3cscc3C)c3c(c12)OCC3 [US20250059204, Compound 14]
43 nM	COc1cccc(OC)c1S(=O)(=O)Nc1noc2cc(Cn3cccn3)c3c(c12)OC(C)(C)C3 [US20250059204, Compound 56]
